pIC50: −log10 of the molar value.

This test addresses T1, JAK3: Recombinant human kinase domain (Homo sapiens, UniProt P52333).
T1 construct: JAK3: Recombinant human kinase domain from Millipore (Cat #14-629) or prepared; purchased Millipore 14-629
Description: Determination of IC50 of Janus Kinase (JAK) inhibition, radioactive end-point 33P-ATP assay, JAK3. It is filed as biochemical. The following applies: ATP 1.5 uM, peptide 50 uM, 20 minutes, read-out: JAK3-INHIB-DR/v1~NO ADDITIVE~Enzyme_Conc = 100.

T1 sequence (P52333 822-1111 limits assumed): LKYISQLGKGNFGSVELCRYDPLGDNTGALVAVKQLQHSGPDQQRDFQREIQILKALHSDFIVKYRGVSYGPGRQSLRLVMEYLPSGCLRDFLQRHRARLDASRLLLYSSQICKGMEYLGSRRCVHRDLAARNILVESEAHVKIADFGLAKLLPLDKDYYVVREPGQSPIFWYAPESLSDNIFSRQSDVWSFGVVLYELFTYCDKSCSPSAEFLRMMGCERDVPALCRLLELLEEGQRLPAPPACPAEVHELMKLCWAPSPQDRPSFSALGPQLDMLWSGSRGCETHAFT

In the case of `C[C@@H](NC(=O)c1c[nH]c2ncc(-c3nn(C)c4cc(F)ccc34)nc12)[C@H]1CCCO1` [Example I-64, 2-(6-Fluoro-1-methyl-1H-indazol-3-yl)-5H-pyrrolo[2,3-b]pyrazine-7-carboxylic acid [(R)-(R)-1-(tetrahydro-furan-2-yl)-ethyl]-amide], the pIC50 was 7.88.
As for `C[C@@H](NC(=O)c1c[nH]c2ncc(-c3nn(C)c4cc(F)ccc34)nc12)c1ncco1` [Example I-50, 2-(6-Fluoro-1-methyl-1H-indazol-3-yl)-5H-pyrrolo[2,3-b]pyrazine-7-carboxylic acid ((R)-1-oxazol-2-yl-ethyl)-amide], the pIC50 is 8.58.
Take `C[C@H](CO)NC(=O)c1c[nH]c2ncc(-c3nn(C)c4cc(Cl)ccc34)nc12` [Example I-200, 2-(6-Chloro-1-methyl-1H-indazol-3-yl)-5H-pyrrolo[2,3-b]pyrazine-7-carboxylic acid ((R)-2-hydroxy-1-methyl-ethyl)-amide]: the pIC50 was 7.26.
The same measure for `CC(C)NC(=O)c1c[nH]c2ncc(-c3nn(CC4CC4)c4cc(Cl)ccc34)nc12` [Example I-309, 2-(6-Chloro-1-cyclopropylmethyl-1H-indazol-3-yl)-5H-pyrrolo[2,3-b]pyrazine-7-carboxylic acid isopropylamide]: 7.54; for `CC(CC(F)(F)F)NC(=O)c1c[nH]c2ncc(-c3nn(C)c4cc(F)ccc34)nc12` (centres unmarked) [Example I-185, 2-(6-Fluoro-1-methyl-1H-indazol-3-yl)-5H-pyrrolo[2,3-b]pyrazine-7-carboxylic acid (3,3,3-trifluoro-1-methyl-propyl)-amide]: 8.30.
Regarding `C[C@H](CS(C)(=O)=O)NC(=O)c1c[nH]c2ncc(-c3nn(C)c4cc(Cl)ccc34)nc12` [Example I-105, 2-(6-Chloro-1-methyl-1H-indazol-3-yl)-5H-pyrrolo[2,3-b]pyrazine-7-carboxylic acid ((R)-2-methanesulfonyl-1-methyl-ethyl)-amide], the pIC50 was 7.26.
The same measure for `Cn1nc(-c2cnc3[nH]cc(C(=O)N[C@H]4CCC[C@H](C(N)=O)C4)c3n2)c2ccc(Cl)cc21` (relative stereo) [Example I-155, 2-(6-Chloro-1-methyl-1H-indazol-3-yl)-5H-pyrrolo[2,3-b]pyrazine-7-carboxylic acid (trans-3-carbamoyl-cyclohexyl)-amide]: 7.11; for `COCCn1nc(-c2cnc3[nH]cc(C(=O)N[C@H](C)C(=O)N4CC(C#N)C4)c3n2)c2ccc(Cl)cc21` [Example I-24, 2-[6-Chloro-1-(2-methoxy-ethyl)-1H-indazol-3-yl]-5H-pyrrolo[2,3-b]pyrazine-7-carboxylic acid [(R)-2-(3-cyano-azetidin-1-yl)-1-methyl-2-oxo-ethyl]-amide]: 8.63.
Then `Cn1nc(-c2cnc3[nH]cc(C(=O)NC(C)(C)C)c3n2)c2ccc(Cl)cc21` [Example I-305, 2-(6-Chloro-1-methyl-1H-indazol-3-yl)-5H-pyrrolo[2,3-b]pyrazine-7-carboxylic acid tert-butylamide], with 6.35.
Regarding `C[C@@H](NC(=O)c1c[nH]c2ncc(-c3nn(C)c4cc(F)ccc34)nc12)c1ccc(Br)cc1` [Example I-216, 2-(6-Fluoro-1-methyl-1H-indazol-3-yl)-5H-pyrrolo[2,3-b]pyrazine-7-carboxylic acid [(R)-1-(4-bromo-phenyl)-ethyl]-amide], the pIC50 was 7.89.
As to `C[C@@H](NC(=O)c1c[nH]c2ncc(-c3nn(C)c4cc(F)cc(F)c34)nc12)C(=O)N1CC(C#N)C1` [Example I-88, 2-(4,6-Difluoro-1-methyl-1H-indazol-3-yl)-5H-pyrrolo[2,3-b]pyrazine-7-carboxylic acid [(R)-2-(3-cyano-azetidin-1-yl)-1-methyl-2-oxo-ethyl]-amide], the pIC50 is 8.80.
Then `C[C@@H](NC(=O)c1c[nH]c2ncc(-c3nn(C)c4cc(Cl)ccc34)nc12)C(=O)N1CC[C@H](F)C1` [Example I-118, 2-(6-Chloro-1-methyl-1H-indazol-3-yl)-5H-pyrrolo[2,3-b]pyrazine-7-carboxylic acid [(R)-2-((S)-3-fluoro-pyrrolidin-1-yl)-1-methyl-2-oxo-ethyl]-amide], with 8.70; and `C[C@@H](NC(=O)c1c[nH]c2ncc(-c3nn(CC#N)c4cc(Cl)ccc34)nc12)C(=O)N1CC(C#N)C1` [Example I-93, 2-(6-Chloro-1-cyanomethyl-1H-indazol-3-yl)-5H-pyrrolo[2,3-b]pyrazine-7-carboxylic acid [(R)-2-(3-cyano-azetidin-1-yl)-1-methyl-2-oxo-ethyl]-amide], with 9.11; and `C[C@@H](NC(=O)c1c[nH]c2ncc(-c3nn(CCc4ccccn4)c4cc(Cl)ccc34)nc12)C(=O)N1CC(C#N)C1` [Example I-232, 2-[6-Chloro-1-(2-pyridin-2-yl-ethyl)-1H-indazol-3-yl]-5H-pyrrolo[2,3-b]pyrazine-7-carboxylic acid [(R)-2-(3-cyano-azetidin-1-yl)-1-methyl-2-oxo-ethyl)-amide], with 8.45.
Regarding `C[C@@H](NC(=O)c1c[nH]c2ncc(-c3nn(C)c4cc(Cl)ccc34)nc12)C(=O)N1CC(F)C1` [Example I-120, 2-(6-Chloro-1-methyl-1H-indazol-3-yl)-5H-pyrrolo[2,3-b]pyrazine-7-carboxylic acid [(R)-2-(3-fluoro-azetidin-1-yl)-1-methyl-2-oxo-ethyl)-amide], the pIC50 was 8.56.
The same measure for `[2H]C([2H])([2H])OC[C@H](C)NC(=O)c1c[nH]c2ncc(-c3nn(C)c4cc(F)ccc34)nc12` [Example I-182, 2-(6-Fluoro-1-methyl-1H-indazol-3-yl)-5H-pyrrolo[2,3-b]pyrazine-7-carboxylic acid ((S)-1-methyl-2-trideuteromethoxy-ethyl)-amide]: 8.97; for `C[C@H](NC(=O)c1c[nH]c2ncc(-c3nn(C)c4cc(F)ccc34)nc12)c1ncco1` [Example I-51, 2-(6-Fluoro-1-methyl-1H-indazol-3-yl)-5H-pyrrolo[2,3-b]pyrazine-7-carboxylic acid ((S)-1-oxazol-2-yl-ethyl)-amide]: 8.04; for `C[C@@H](NC(=O)c1c[nH]c2ncc(-c3nn(C)c4cc(Cl)ccc34)nc12)C(=O)N1CC2(COC2)C1` [Example I-27, 2-(6-Chloro-1-methyl-1H-indazol-3-yl)-5H-pyrrolo[2,3-b]pyrazine-7-carboxylic acid [(R)-1-methyl-2-(2-oxa-6-aza-spiro[3.3]hept-6-yl)-2-oxo-ethyl]-amide]: 7.69.
Consider `C[C@H](Cn1cccn1)NC(=O)c1c[nH]c2ncc(-c3nn(C)c4cc(F)ccc34)nc12` [Example I-133, 2-(6-Fluoro-1-methyl-1H-indazol-3-yl)-5H-pyrrolo[2,3-b]pyrazine-7-carboxylic acid ((R)-1-methyl-2-pyrazol-1-yl-ethyl)-amide], for which the pIC50 was 7.25.
With `C[C@@H](NC(=O)c1c[nH]c2ncc(-c3nn(C)c4cc(F)ccc34)nc12)C(F)(F)Cc1ccccc1` [Example I-61, 2-(6-Fluoro-1-methyl-1H-indazol-3-yl)-5H-pyrrolo[2,3-b]pyrazine-7-carboxylic acid ((R)-2,2-difluoro-1-methyl-3-phenyl-propyl)-amide], the pIC50 was 7.78.

These data come from US8658646B2, “Pyrrolopyrazine kinase inhibitors” (Hoffmann-LaRoche Inc., priority 2011, dated 2014).
